Results: patent US20090275653A1, “POLYMORPHIC FORMS OF LADOSTIGIL TARTRATE” (priority 2005, published 2009)

Columns and labels:
[1] = tested on: animal models of Alzheimer's disease; conditions: background statement, literature; cited from earlier work
Effect of freezing (XRD) = format: physicochemical; conditions: freezer at about −25° C. for 3 months
Method: The effects of freezing was determined by XRD and the following results were obtained:
Form A1 was kept in a freezer at about −25° C. for 3 months. Form A1 transformed to Form A in freezer.

[2] = Hygroscopicity study: exposure to 0-100% relative humidity at room temperature (Karl Fischer, TGA, crystal form by XRD); format: physicochemical; set-up: TGA: unit not given here
Source text: Form E was placed for 1 week under 0-100% relative humidity at room temperature. Table 1 summarizes the results:
Form F was placed for 14 days under 0-100% relative humidity at room temperature. Table 2 summarizes the results:
Form H was placed for 14 days under 0-100% relative humidity at room temperature. Table 3 summarizes the results:
Form J1 was placed for 9 days under 0-100% relative humidity at room temperature. Table 4 summarizes the results:
Table 5 summarizes the results:
X-Ray powder diffraction data were obtained by method known in the art using a SCINTAG powder X-Ray diffractometer model X'TRA equipped with a solid state detector. Copper radiation of 1.5418 Å was used. A round aluminum sample holder with round zero background quartz plate, with a cavity of 25(diameter)*0.5(depth) mm was used.
(§1) TGA analysis was performed using a Mettler M3 meter. The weight of the samples was about 10 mg. The samples were scanned at a rate of 10° C./min from 25° C. to 200° C. The oven was constantly purged with nitrogen gas at a flow rate of 40 ml/min. Standard 70 μl alumina crucibles covered by lids with 1 hole were used.
(§2) The water content of ladostigil tartrate was measured by methods known in the art, such Karl Fischer analysis.
Crystal form was determined after equilibration of ladostigil tartrate form A for 10 days at various relative humidities at room temperature.
Form A1 was exposed at various humidity conditions at room temperature for 13 days.
Ladostigil tartrate form A1 was exposed to various humidity conditions at room temperature for 14 days. TGA was performed, and the crystal form was analyzed.
A mixture of ladostigil tartrate form A1 and E, containing primarily form A1, was exposed at various humidity conditions at room temperature for 14 days.
Form E was placed for 7 days under 0-100% relative humidity at room temperature. Table 12 summarizes the results:
Form F was placed for 14 days under 0-100% relative humidity at room temperature. Table 14 summarizes the results:
Ladostigil tartrate Form H was exposed for 14 days under 0-100% relative humidity at room temperature. Table 15 summarizes the results:
Crystal ladostigil tartrate Form J1 was placed for 9 days under 0-100% relative humidity at room temperature.

[3] = Water content (Karl Fischer) and loss on drying (TGA) of the form as obtained; format: physicochemical
Method: as §1, §2

[4] = Effect of micronization, pressing and grinding (XRD); format: physicochemical; conditions: pressing 1 minute at 100 metric tons
Method: The effects of micronization, pressing (1 minute at 100 metric tons) and grinding were determined by XRD and the following results were obtained: […]

[5] = 100% RH, 13 days, room temperature
[6] = 100% RH, 14 days, room temperature

## C#CCN[C@@H]1CCc2ccc(OC(=O)N(C)CC)cc21 [Ladostigil, Ethyl-methyl-carbamic acid (R)-3-prop-2-ynylamino-indan-5-yl ester]
[1]
  Efficacy in animal models of Alzheimer's disease: effective

## carbamic acid, ethylmethyl-, (3R)-2,3-dihydro-3-(2-propynylamino)-1H-inden-5-yl ester, (2R,3R)-2,3-dihydroxybutanedioate (2:1) [Form A1, reference compound]
Effect of freezing (XRD)
  Crystal form after freezing: Form A
[2]; 0% RH, 13 days, room temperature
  KF (Karl Fischer analysis): 0.3%
[2]; 20% RH, 13 days, room temperature
  KF (Karl Fischer analysis): 0.3%
[2]; 40% RH, 13 days, room temperature
  KF (Karl Fischer analysis): 0.3%
[2]; 60% RH, 13 days, room temperature
  KF (Karl Fischer analysis): 0.3%
[2]; 60% RH, 14 days, room temperature
  TGA: 0.2
[2]; 80% RH, 13 days, room temperature
  KF (Karl Fischer analysis): 0.3%
[2]; 80% RH, 14 days, room temperature
  TGA: 0.1
[2]; [5]
  KF (Karl Fischer analysis): 0.5%
  Resulting form: partially transforms to form A
[2]; [6]
  Crystal Form (resulting form): mixture of Form A and A1
  TGA: 0.1
[2]; conclusion in words
  Hygroscopicity: neither Form A nor Form A1 is hygroscopic
[2]; high relative humidity, in words
  Crystal form upon exposure to high relative humidity: transforms to form A
[3]
  Weight loss / loss on drying by TGA: 0.3%
[3]; by weight
  Water content: about 0.3%
[4]
  Crystallinity after pressing: lose some extent of crystallinity
